The results in this text go back to paper PMC8774657, “Peptide-Mucin Binding and Biosimilar Mucus-Permeating Properties” (Gels, 2021).

Where a SMILES comes first, the peptide text is derived from it. Where no end group is shown, it is not given here.

The series in a line: Biosimilar mucus-permeating assay, in vitro cell-free model. Conditions: peptide 1 mM, OPA method; for Mucus permeability (in words): cell-free biosimilar mucus model, PBS pH 7.2, 25 ℃, verbal grade; for Final cumulative mucus permeability at 240 min / Cumulative mucus permeability at 60 min: cell-free, biosimilar mucus (0.3% PAA, 5% mucin, 3.1% BSA, 0.6% lipid mixture, Tween 80) on 10 KDa centrifugal filter, 1 mL, PBS pH 7.2, 470× g, 25 ℃, mean ± SEM, at least three times in triplicate. Type of series: in vitro ADME. As to the method: An in vitro cell-free model was established in this study for the quantification of mucus-permeating property of peptides. Biosimilar mucus used in the model consisted of 0.3% (w/v) PAA, 5% (w/v) mucin, 3.1% (w/v) BSA, 0.6% (w/v) lipid mixture including 0.06% (w/v) linoleic acid, 0.36% (w/v) cholesterol, 0.18% (w/v) phosphatidylcholine, and Tween 80 (25% of lipid mixture, w/w). First, the lipid was mixed with Tween 80, whereafter PBS buffer with 150 mM NaCl (5 mM, pH 7.2) was slowly added under magnetic stirring (Cimarec, ThermoFisher Scientific, Waltham, MA USA). On the other hand, PAA was dissolved in PBS buffer prior to the addition of mucin under stirring, and pH adjusted to 7.0 using NaOH (1 M). After mixing the lipids and mucin suspension, BSA was added to finalize the biosimilar mucus and the pH was adjusted to 7.4. The mucus mixture was stored overnight at 4 ℃ before dialyzing (Fisherbrand Regenerated Cellulose Dialysis Tubing, MWCOs from 3500 to 14,000 Daltons) for 72 h against PBS buffer (5 mM, pH 7.2) containing 150 mM NaCl to remove unbound lipids and contaminating proteins from BSA. Mucus-permeating assay was conducted by firstly adding 3.8 mL of dialyzed mucus suspensions to the filter of the centrifugal unit (4 mL, 10 KDa cutoff, Amicon Ultra, Millipore Sigma) followed by centrifugation at 2935× g for 15 min to make the mucus settle down and completely cover the entire membrane before adding peptide solutions (1 mM, 1 mL) or 1 mL of PBS buffer as blank. Afterwards, the permeate during centrifugation at 25 ℃ and 470× g was collected every 15 min for 4 h. The peptide content in the permeate was measured using the OPA method. The mucus permeability of the peptides was quantified using Equation (2). (2) P=np−nb/nT×100 PP is the percentage permeability, np represents the permeated peptides (µmol), nb is the blank (µmol), and nT is the total loaded peptide amount (µmol).

For QIGLF [Pep7, QIGLF], the “Mucus permeability (in words)” value is recorded as “low mucus permeability” and the “Final cumulative mucus permeability at 240 min” value is listed as 51 ± 9%.

As to `CSCC[C@H](NC(=O)[C@@H](N)Cc1ccc(O)cc1)C(=O)N[C@@H](CO)C(=O)N[C@H](C(=O)O)C(C)C` [Pep3, YMSV] (H-YMSV-OH), the “Mucus permeability (in words)” value is “low mucus permeability” and the “Final cumulative mucus permeability at 240 min” value was found to be 44 ± 12%.

KIPAVF [Pep1, KIPAVF]: the “Mucus permeability (in words)” value is recorded as “low mucus permeability” and the “Final cumulative mucus permeability at 240 min” value was 23 ± 6%.

For the compound `C[C@@H](O)[C@H](N)C(=O)N[C@@H](CC(N)=O)C(=O)NCC(=O)N[C@@H](CCC(N)=O)C(=O)O` [Pep4, TNGQ] (H-TNGQ-OH), the “Mucus permeability (in words)” value is given as “high mucus permeability”, the “Cumulative mucus permeability at 60 min” value amounted to 96 ± 30% and the “Final cumulative mucus permeability at 240 min” value was 142 ± 35%.

For `CC(C)C[C@H](NC(=O)[C@H](CO)NC(=O)[C@H](C)NC(=O)[C@@H]1CCCN1)C(=O)O` [Pep6, PASL] (H-PASL-OH), the “Mucus permeability (in words)” value is on record as “high mucus permeability”, the “Cumulative mucus permeability at 60 min” value was found to be 40 ± 17% and the “Final cumulative mucus permeability at 240 min” value stood at 92 ± 27%.

On to `CSCC[C@H](N)C(=O)N[C@@H](C)C(=O)N[C@@H](CC(N)=O)C(=O)N[C@H](C(=O)O)[C@@H](C)O` [Pep2, MANT] (H-MANT-OH), for which the “Mucus permeability (in words)” value is recorded as “low mucus permeability” and the “Final cumulative mucus permeability at 240 min” value is 21 ± 5%.

In the case of `CSCC[C@H](NC(=O)[C@@H](N)CCCCN)C(=O)N1CCC[C@H]1C(=O)N[C@H](C(=O)O)C(C)C` [Pep5, KMPV] (H-KMPV-OH), the “Mucus permeability (in words)” value is reported as “low mucus permeability” and the “Final cumulative mucus permeability at 240 min” value is 13 ± 2%.
